According to a melting point compilation (Tetko et al.; mined from patent text by program, amines drawn as free bases though some values may be those of a salt):

melting point [°C] | Compound
91 to 93 | CCCCCCCCCCCCCCCc1cccc(OC)c1C1NC(=O)NC(C)=C1C(=O)OCC (stereo not given)
148 to 149 | CC1(C)Nc2cc(F)ccc2NC1=O
253 to 255 | Cc1cccc(C(=O)NCc2cccc3c2CN(C2CCC(=O)NC2=O)C3=O)c1 (stereo not given)
> 260 | O=C(CN1C(=O)c2ccccc2C1=O)NNC(=O)c1ncn2c1[C@@H]1CCCN1C(=O)c1sccc1-2
90 to 91.5 | NS(=O)(=O)Oc1cccc(Br)c1
174 | CC(C)[C@H](NC(=O)OCc1ccccc1)C(=O)NCc1ccccc1
98 to 101 | O=C(CN1CN(OC(F)(F)F)C=N1)c1ccccc1
195 to 199 | CC(=O)Nc1ccc(S(=O)(=O)c2ccc(Br)cc2)cc1
102 to 103 | Brc1cccc2c1Cc1ccccc1-2
180 | Cc1cnc(Cl)c(C(=O)O)c1
146 to 148 | COC(=O)Cc1cc(C(=O)c2ccc(C#Cc3ccccc3)c(N)c2)sc1-c1ccccc1
216 to 217 | Cn1c(C(F)(F)F)cc(=O)n(-c2ccc(Cl)c(C=C(Cl)C(=O)O)c2)c1=O
52 to 54 | CCCCCCCCCCCCCCCCCC(=O)OC(CCc1cc(C(C)(C)C)c(O)c(C(C)(C)C)c1)CCc1cc(C(C)(C)C)c(O)c(C(C)(C)C)c1
110 to 114 | COC(=O)[C@@H](O)[C@H](CC(C)C)NC(=O)[C@H](Cc1c[nH]cn1)NC(=O)[C@H](Cc1cccc2ccccc12)NC(=O)OCc1ccccc1
138 to 139 | CC(C)c1cccc(C(C)C)c1NC(=O)CN1CCN(CCSc2nc3cccc(CO)c3o2)CC1
173 to 175 | O=C(O)CC(NS(=O)(=O)c1ccc2ccccc2c1)c1ccc2c(c1)OCO2 (stereo not given)
73 to 75 | CC(=O)OCCc1cc2c(s1)CCC1CC(=O)N(c3ccc(C)cc3)N=C21 (stereo not given)
249 to 252 | O=C1Cc2ccccc2C(c2c(F)cccc2Cl)N1 (stereo not given)
99 to 101 | CC(C)NCC(O)COc1cccnc1[N+](=O)[O-] (stereo not given)
123 to 124 | Cc1cc(C)nc(NC(=O)Cc2c(Cl)sc3ccccc23)c1

melting point [°C] | Compound
280 | Cn1c(=O)n(Cc2ccc(F)cc2)c(=O)c2cc(C(=O)c3nc(Br)c4ccccn34)ccc21
174 | OCCC1Cc2ccccc2CN1C(=S)Nc1cccnc1 (racemic)
156 to 173 | COC(=O)/C=C/c1ccc(NC(=O)CCCBr)nc1
158 to 159 | CCOC(=O)c1cc2c(C(F)(F)F)cc(CO)cc2n1C
146 to 148 | Fc1ccc(C2=C(c3ccccc3)N(C(F)(F)F)CO2)cc1F
184 to 185 | CC(=O)N1CCCC(=O)c2ccc(Cl)cc2C(c2ccccc2)CC1=O (stereo not given)
121 to 122 | COc1ccc2c(c1)c(CC(=O)OCC(=O)O)c(C)n2C(=O)c1ccccc1C(F)(F)F
61 to 62 | CCOC(=O)CCCSC(=S)NCc1ccc(Cl)cc1
138 to 140 | Cn1nnn(-c2c(Cl)ccc(C(=O)C3C(=O)CCCC3=O)c2Cl)c1=O
55 | CCOc1ccc(CCNC(=O)/C=C/c2cccs2)cc1S(N)(=O)=O
81 to 83 | CN(C)c1nc(NCc2ccco2)nc(Nc2cccc(C(F)(F)F)c2)n1
118 to 119 | CCOc1c(C=O)cc2c3c(cccc13)-c1ccccc1-2
139 to 140 | CC(C)N1CCc2ccc(C(=O)CCC(=O)N3CCC(c4ccc(Cl)cc4)CC3)cc2CC1
210 to 212 | CN1CCC(Sc2cc3c(cc2Cl)[nH]c(=O)n3C)CC1
183 to 184 | COc1ccc(Oc2c(Br)cc(C=O)cc2Br)cc1Cc1ccc(=O)[nH]n1
126 to 128 | CCNC(=O)[C@@H]1CCCN1C(=O)[C@H](C)NC(=O)OCC
91 | Cc1ccc(S(=O)(=O)N2[C@@H](CCc3nc(C)no3)CC[C@H]2c2ccc(F)cc2)cc1 (racemic)
180 to 181 | CC1Oc2ccc(CN3CCN(CC(=O)NC4CC4)CC3)cc2NC1=O (stereo not given)
143 | COC(=O)c1c(C)cn2cc(OCc3ccccc3)ccc12

Further lines, the molecule ahead of its results:

Compound | melting point [°C]
O=C(c1ccccc1)c1ccc(OCCCCCCBr)c(Cl)c1 | 58
CC(C(=O)O)c1ccc(C=C2CCCCC2O)cc1 (stereo not given) | 135 to 136
O=C(O)c1ccc2n1Cc1ccccc1N(C(=O)COc1ccc(Cl)cc1)C2 | 168
O=c1ccoc2ccc(F)cc12 | 165 to 168
CCOC1=NC(C)(C)NC(N)=N1 | 175 to 178
CSC(SC)=C1C(=O)OC(C)(C)OC1=O | 114 to 118
CN(CC(O)(CO)c1ccccc1)S(=O)(=O)c1ccc(Cl)cc1 (stereo not given) | 122 to 123
COC[C@H]1CCCN1S(=O)(=O)c1ccc2c(c1)C(=O)C(=O)N2 | 161 to 164
CCOC(=S)c1ncncc1C | 99 to 100
O=C(Cn1cc(-c2ccc3nnn(Cc4ccc5ncccc5c4)c3n2)cn1)N1CCCC1 | 136 to 138
O=C(CCCCCC1(C(=O)O)CCCC1)CCCCCC1(C(=O)O)CCCC1 | 78 to 85
CN=C(NS(=O)(=O)N1CCOCC1)C1=NN(c2ccc(Cl)cc2Cl)C(c2ccccc2)C1 (stereo not given) | 161 to 165
Cc1ccc(Cl)c2c1[nH]c1c(C(=O)O)cccc12 | 303
COc1ccc2c3c1OC1C(=O)C(COS(=O)(=O)c4ccc(C)cc4)(COS(=O)(=O)c4ccc(C)cc4)CC4C(C2)N(C)CCC314 (stereo not given) | 150 to 153
O=c1c2ccccc2nc(CCl)n1-c1ccccc1Cl | 195 to 196
CCCCC(=N)NC(=O)Nc1ccc(OC)cc1 | 144 to 145
N#CC1c2ccccc2COc2ccccc21 (stereo not given) | 65 to 66.5
C[C@H](C#Cc1ccc(CCc2ccc(F)cc2)s1)N(O)C(N)=O | 126 to 128
CCOC(=O)N(C)c1cccc(-c2ccc3nnc(C)n3n2)c1 | 146 to 149
COc1c(F)c(Oc2cc(C(F)(F)F)nn2C)nc(Oc2cc(C(F)(F)F)nn2C)c1F | 83
CC(=O)OC1CSC(Oc2cccc(C#N)c2)C(OC(C)=O)C1OC(C)=O (stereo not given) | 148 to 151

Compound | melting point [°C]
CC(C)n1nc(-c2sc(NC(=O)c3ccc4ccccc4c3)nc2-c2ccccc2)ccc1=O | 227 to 229
CC(=O)N[C@@H](Cc1ccccc1)C[C@H](O)[C@H](Cc1ccccc1)N(Cc1ccccc1)Cc1ccccc1 | 84 to 86
Fc1cccc2c(NCCc3ccc4ccccc4c3)ccnc12 | 173 to 174
CCOC(=O)Cc1ccnc2c([N+](=O)[O-])cccc12 | 67 to 69
CC(C)(C)c1cc(C#Cc2ccc(NS(C)(=O)=O)cc2Cl)cc(N2CCC(=O)NC2=O)c1 | 278 to 280
NS(=O)(=O)c1cc(Cl)ccc1S | 142 to 144
CCCc1c2nc(C(=O)OC)cc(Br)c2cc2c(=O)cc(C(=O)OC)oc12 | 179 to 180
c1ccc2c(c1)CCN(Cc1nc3ccccc3[nH]1)C2 | 184 to 186
CC(C)(C)OC(=O)c1cccc(O)c1 | 94 to 96
Cc1nc(NC(=O)c2cc(Cl)cc(Cl)c2)sc1C(=O)NCc1ccccc1 | 104 to 105
CCc1ccc(NC(=O)c2sccc2S(=O)(=O)Nc2onc(C)c2Br)cc1 | 187 to 190
COc1cc2ccc(S(=O)(=O)Cl)cc2cc1OC | 128 to 130
OC(CN1CCNC1=S)c1ccccn1 (stereo not given) | 120
CN1C(=O)c2cnc(-c3ccccc3)nc2N(C(=O)CCl)c2ccccc21 | 189 to 190
OCc1ccc(-c2cccc(-c3cn([C@H]4CN5CCC4CC5)nn3)c2)s1 | 176
CCn1c(C)nc2cc(C(F)(F)F)c(Cl)c(NC)c21 | 116 to 119
N#Cc1ccc(Cn2c(N3CCC(CNc4nccc(O)n4)CC3)nc3ccccc32)cc1 | 198
CCCC(=O)c1cnc2cc(COC(=O)c3ccccc3)ccc2c1Cl | 66 to 68
CN(C)c1nonc1-c1nc2ccccc2n1CC(=O)c1ccc(Cl)cc1 | 120 to 123
CCCC(CO)(CCC)N(OC(C)c1ccccc1)C(C)(C)CO (stereo not given) | 88 to 92
CCCc1nn(C)c2c(=S)[nH]c(-c3cc(S(=O)(=O)N4C[C@@H](C)N[C@@H](C)C4)ccc3OCC)nc12 | 196 to 199

Compound | melting point [°C]
CCOC(=O)COc1ccc2c(c1)C[C@H](NC(=O)OC(C)(C)C)CC2 | 113 to 115
COC(=O)N1C(C)=NC(C)=C(C(=O)NCCCN2CCC(C(=O)OC)(c3ccccc3)CC2)C1c1ccc(F)c(F)c1 (stereo not given) | 55 to 57
O=C(N[C@H]1CC[C@H](CCN2CCN(c3nccc4c3CCO4)CC2)CC1)c1ccc(-c2cccnc2)cc1 | 218
O=C(Cc1noc2ccccc12)N[C@H]1CC[C@H](CCN2CCN(c3nccc4c3OCC4)CC2)CC1 | 211
CN(Cc1cccc2c1CN(C1CCC(=O)NC1=O)C2=O)C(=O)Nc1cccc(Cl)c1 (stereo not given) | 193 to 195
O=c1[nH]c2ccccc2cc1CC1CCc2ccccc2N1 (stereo not given) | 196 to 199
CCOC(Cl)(Cl)C1OC(=C(Cl)Cl)c2cc(C(=O)O)ccc2O1 (stereo not given) | 121 to 122
CS(=O)(=O)c1c(C(=O)NN=Cc2ccc3ccccc3c2)[nH]c2ccccc12 | > 250
O=C1N(c2cc(Cl)nc(Cl)c2)C(=O)C2(Cc3ccc(O)cc3)CCCN12 (stereo not given) | 165
CC(C)(C)n1nc(Cc2ccccc2)c(C#N)c1N | 106 to 110
N#CC(C#N)=C(Cl)c1ccc(C(Cl)=C(C#N)C#N)cc1 | 177 to 179
CN(CC(=O)N1c2ccccc2N(Cc2ccccc2)C(=O)[C@H]2CCC[C@H]21)Cc1ccccc1 (relative stereo) | 75 to 78
CC(CO)(CO)NS(=O)(=O)c1cccc([N+](=O)[O-])c1 | 116
CCOC(=O)C1=C(COCCNC(=O)N2CCNC2=O)NC(C)=C(C(=O)OC)C1c1ccccc1Cl (stereo not given) | 145
Cc1cc(Cl)n2nc(S(=O)(=O)Nc3c(Cl)cccc3Cl)nc2c1 | 257 to 258
O=C1c2cscc2C(=O)c2cscc21 | 340
CCCCOCc1cc(-n2nc(C(N)=O)nc2-c2ccccc2)ccc1Cl | 96 to 98
Cc1ccc(Cl)c(C2CC(=O)c3c(C)ccnc3C2)c1 (stereo not given) | 123 to 124
Cc1cc(-c2ccc(O)nc2)cc(C=O)c1N | 231 to 234
